Data taken from patent publication US11292782B2, “Diarylhydantoin compounds and methods of use thereof” (Nuvation Bio Inc., priority 2018, dated 2022).
Read-outs that look alike come from different tables or passages of the source.

How the values were obtained:
Type in all cases: cell-based
[1] = target: GR (Homo sapiens (Human), UniProt P04150); assay: GR antagonist assay (GRE-LUC luciferase, transfected COS-7 cells, with 0.1 nM dexamethasone); conditions: for inhibition at 10 µM: COS-7, read-out: GR Antagonism % inhibition at 10 μM; for IC50 / GR antagonist assay, % of vehicle: in the presence of 0.1 nM dexamethasone; for GR antagonist assay, % of vehicle: 10 μM
Chain of GR (P04150 whole entry): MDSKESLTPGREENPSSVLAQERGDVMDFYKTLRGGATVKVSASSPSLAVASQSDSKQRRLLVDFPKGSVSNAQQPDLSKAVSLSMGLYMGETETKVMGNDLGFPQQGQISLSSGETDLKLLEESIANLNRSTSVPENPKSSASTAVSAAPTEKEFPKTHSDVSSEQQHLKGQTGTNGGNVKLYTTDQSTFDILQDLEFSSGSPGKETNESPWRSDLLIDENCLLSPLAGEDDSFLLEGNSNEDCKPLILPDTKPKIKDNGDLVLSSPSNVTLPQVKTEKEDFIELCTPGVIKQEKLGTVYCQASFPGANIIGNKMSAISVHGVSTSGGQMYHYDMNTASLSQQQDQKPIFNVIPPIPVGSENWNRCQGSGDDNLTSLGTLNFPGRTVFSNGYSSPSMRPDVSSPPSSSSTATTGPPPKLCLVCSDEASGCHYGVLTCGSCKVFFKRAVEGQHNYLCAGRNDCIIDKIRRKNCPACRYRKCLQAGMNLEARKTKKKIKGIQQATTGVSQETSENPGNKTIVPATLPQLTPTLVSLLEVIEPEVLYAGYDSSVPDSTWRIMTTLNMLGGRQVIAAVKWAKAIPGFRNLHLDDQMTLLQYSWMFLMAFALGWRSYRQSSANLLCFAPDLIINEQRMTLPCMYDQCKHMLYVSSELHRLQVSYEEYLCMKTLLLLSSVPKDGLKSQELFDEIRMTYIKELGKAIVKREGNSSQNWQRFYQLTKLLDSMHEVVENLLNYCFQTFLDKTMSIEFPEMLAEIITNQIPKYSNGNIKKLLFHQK
Method: COS-7 cells (ATCC, Manassas, Va.) were plated in 24 well plates in DME+5% csFBS without phenol red at 70,000 cells/well. Once the cells attached to the plates (typically after overnight incubation after plating), they were transfected in OPTIMEM medium (Life Technologies) using lipofectamine reagent (Life Technologies) with 0.25 μg GRE-LUC, 25 ng pCR3.1 GR, and 10 ng CMV-renilla LUC per well. Twenty-four hours after transfection, the cells were fed with DME+5% csFBS without phenol red (Fisher Scientific, Waltham, Mass.) and treated with the test compounds (1 pM to 10 μM dose range) in the presence of 0.1 nM dexamethasone (Sigma, St. Louis, Mo.). Sixteen to twenty-four hours after treatment, a luciferase assay was performed using the Dual Luciferase assay kit (Promega, Madison, Wis.). Firefly luciferase values were normalized to Renilla luciferase numbers.

[2] = tested on: LNCaP-abl cells; assay: Cell proliferation assay, LNCaP-abl (CellTiter-Glo); conditions: 72 h, 3 days; for activity at 3 µM: read-out: cell proliferation, % of vehicle at 3 μM; for activity at 10 µM: read-out: cell proliferation, % of vehicle at 10 μM
Method: LNCaP-abl (3,000 cells/well, received from Dr. Myles Brown, Dana Farber Cancer Institute), 22RV1 (1,000 cells/well), LNCaP (5,000 cells/well), or COS (3,000 cells/well) cells were plated in 96 well plates in 50 μl RPMI+10% FBS (Fisher Scientific, Waltham, Mass.). LNCaP, COS, and 22RV1 cells were obtained from ATCC. Cells were treated in RPMI+10% FBS with test articles, ranging from 1 nM to 10 μM. Three days later, viable cells (LNCaP-abl, 22RV1, and COS) were measured by CellTiter-Glo assay (Promega, Madison, Wis.). For LNCaP cells, medium containing test article was changed after 3 days of treatment, and after an additional 3 days of culture, viable cells were measured by CellTiter-Glo assay.
The LNCaP cell line is androgen responsive with AR and PSA expression. It contains a T877A mutation in the AR. The 22RV1 cell line is positive for AR and PSA with additional AR splice variants and is insensitive to androgen for cell proliferation. The LNCaP-abl cell line expresses both AR and GR but is insensitive to androgen for cell proliferation. COS-7 is used as an AR negative cell line in this experiment.

[3] = target: Human AR (Homo sapiens (Human), UniProt P10275); assay: AR antagonist assay (GRE-LUC luciferase, transfected HEK-293 cells, with 0.1 nM R1881); conditions: for IC50: with 0.1 nM R1881; for inhibition at 1 µM: HEK293
Chain of Human AR (P10275 whole entry): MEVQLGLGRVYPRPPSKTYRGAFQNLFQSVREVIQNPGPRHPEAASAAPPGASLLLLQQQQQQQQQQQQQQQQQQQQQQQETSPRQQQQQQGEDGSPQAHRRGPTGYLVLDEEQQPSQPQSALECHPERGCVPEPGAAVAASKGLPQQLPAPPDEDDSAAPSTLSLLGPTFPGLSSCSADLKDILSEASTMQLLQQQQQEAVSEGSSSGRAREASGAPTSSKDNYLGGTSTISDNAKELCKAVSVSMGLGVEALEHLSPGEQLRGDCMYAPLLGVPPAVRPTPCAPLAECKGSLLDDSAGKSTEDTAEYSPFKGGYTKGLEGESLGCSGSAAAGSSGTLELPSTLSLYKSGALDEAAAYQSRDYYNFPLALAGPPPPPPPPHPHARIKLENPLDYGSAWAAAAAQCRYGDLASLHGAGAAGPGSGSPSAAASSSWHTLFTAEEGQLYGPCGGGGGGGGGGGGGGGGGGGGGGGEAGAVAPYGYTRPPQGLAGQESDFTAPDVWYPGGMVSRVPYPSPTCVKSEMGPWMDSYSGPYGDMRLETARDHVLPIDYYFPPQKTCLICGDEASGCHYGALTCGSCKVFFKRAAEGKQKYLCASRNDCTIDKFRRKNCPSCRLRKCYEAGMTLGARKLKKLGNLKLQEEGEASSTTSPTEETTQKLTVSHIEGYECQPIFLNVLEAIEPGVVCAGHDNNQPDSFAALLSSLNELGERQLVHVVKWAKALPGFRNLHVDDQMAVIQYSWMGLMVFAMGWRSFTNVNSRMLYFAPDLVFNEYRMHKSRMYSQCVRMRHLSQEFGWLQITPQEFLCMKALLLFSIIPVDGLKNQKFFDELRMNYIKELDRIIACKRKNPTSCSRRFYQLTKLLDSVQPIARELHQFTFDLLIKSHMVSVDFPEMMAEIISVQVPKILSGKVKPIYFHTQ
Method: Human AR cDNA cloned into pCMV vector, GRE-LUC, and CMV-renilla-LUC were used to transfect cells. HEK-293 cells (ATCC) were plated at 120,000 cells per well of a 24 well plate in DME+5% csFBS (Fisher Scientific, Waltham, Mass.). The cells were transfected using Lipofectamine (Life Technologies, Carlsbad, Calif.) with 0.25 μg GRE-LUC, 0.010 μg CMV-LUC (renilla luciferase) and 25 ng of the AR. […] Luciferase assay was performed 48 hrs after transfection. Firefly luciferase assay values were normalized to renilla luciferase values and were graphed using graphpad prism software (La Jolla, Calif.). […] The IC50 or EC50 values were determined using non-linear regression and […] logistics fitting.

SMILES | inhibition at 10 µM [1] [%] | IC50 [1] [nM] | IC50 [3] [nM] | also measured
CC1(C)C(=O)N(c2ccc(C#N)c(C(F)(F)F)c2)C(=S)N1c1cnc(CNC(=O)c2ccccn2)c(F)c1 [Compound 53] | 66 | – | – | –
CC1(C)C(=O)N(c2ccc(C#N)c(F)c2)C(=S)N1c1ccc(CNC(=O)c2ccccn2)c(F)c1 [Compound 69] | – | > 10000 | 380 | activity at 3 µM [2]: 77%; activity at 10 µM [2]: 81%
CC1(C)C(=O)N(c2ccc(C#N)c(C(F)(F)F)c2)C(=S)N1c1ccc(CNC(=O)c2ccc3[nH]ncc3c2)c(F)c1 [Compound 79] | 75 | – | – | –
Cn1nccc1C(=O)NCc1ccc(N2C(=S)N(c3ccc(C#N)c(F)c3)C(=O)C2(C)C)cc1F [Compound 74] | – | – | – | inhibition at 10 µM ([1]; 10 μM single concentration): 17%
Cc1nnc(C(=O)NCc2ccc(N3C(=S)N(c4ccc(C#N)c(C(F)(F)F)c4)C(=O)C3(C)C)cc2F)o1 [Compound 62] | 0 | – | – | –
Cn1nccc1C(=O)NCc1ccc(N2C(=S)N(c3ccc(C#N)c(C(F)(F)F)c3)C(=O)C2(C)C)cc1F [Compound 42] | – | > 10000 | 77 | activity at 3 µM [2]: 98%; activity at 10 µM [2]: 60%; inhibition at 1 µM [3]: 95%
CC1(C(=O)NCc2ccc(N3C(=S)N(c4ccc(C#N)c(C(F)(F)F)c4)C(=O)C3(C)C)cc2F)CC1 [Compound 52] | 56 | – | – | –
Cn1nccc1C(=O)NCc1ccc(N2C(=S)N(c3ccc(C#N)c(C(F)(F)F)c3)C(=O)C23CCC3)cc1F [Compound 73] | – | 2960 | 92 | activity at 3 µM [2]: 79%; activity at 10 µM [2]: 66%
CC1(C)C(=O)N(c2ccc(C#N)c(C(F)(F)F)c2)C(=O)N1c1ccc(CNC(=O)c2cccnc2)c(F)c1 [Compound 29] | – | > 10000 | 910 | activity at 3 µM [2]: 90%; activity at 10 µM [2]: 92%
CC1(C)C(=O)N(c2ccc(C#N)c(C(F)(F)F)c2)C(=S)N1c1ccc(CNC(=O)c2ccccc2F)c(F)c1 [Compound 47] | 46 | – | – | –
CC1(C)C(=O)N(c2ccc(C#N)c(C(F)(F)F)c2)C(=S)N1c1ccc(CNC(=O)c2cncs2)c(F)c1 [Compound 5] | – | > 10000 | 93 | activity at 3 µM [2]: 99%; activity at 10 µM [2]: 96%
Cc1ncsc1C(=O)NCc1ccc(N2C(=S)N(c3cnc(C#N)c(C(F)(F)F)c3)C(=O)C2(C)C)cc1Cl [Compound 38] | – | > 10000 | 240 | activity at 3 µM [2]: 59%; activity at 10 µM [2]: 56%
Cn1cncc1C(=O)NCc1ccc(N2C(=S)N(c3ccc(C#N)c(C(F)(F)F)c3)C(=O)C2(C)C)cc1F [Compound 44] | – | > 10000 | 120 | activity at 3 µM [2]: 87%; activity at 10 µM [2]: 71%
CC1(C)C(=O)N(c2ccc(C#N)c(C(F)(F)F)c2)C(=O)N1c1ccc(CNC(=O)c2ncccn2)cc1 [Compound 33] | 3 | – | 304 | –
Cc1ncsc1C(=O)NCc1ccc(N2C(=S)N(c3ccc(C#N)c(F)c3)C(=O)C2(C)C)cc1F [Compound 68] | – | – | 120 | activity at 3 µM [2]: 89%; activity at 10 µM [2]: 85%; GR antagonist assay, % of vehicle [1]: 84%
CC1(C)C(=O)N(c2ccc(C#N)c(C(F)(F)F)c2)C(=O)N1c1ccc(CNC(=O)c2ccccn2)c(F)c1 [Compound 23] | – | > 10000 | 180 | activity at 3 µM [2]: 84%; activity at 10 µM [2]: 43%
CC1(C)C(=O)N(c2ccc(C#N)c(C(F)(F)F)c2)C(=S)N1c1ccc(CNC(=O)c2ncc[nH]2)c(F)c1 [Compound 3] | – | > 10000 | 180 | –
Cc1ccccc1C(=O)NCc1ccc(N2C(=S)N(c3ccc(C#N)c(F)c3)C(=O)C2(C)C)cc1F [Compound 71] | – | > 10000 | 589 | activity at 3 µM [2]: 86%; activity at 10 µM [2]: 81%
Cc1ncc(C(=O)NCc2ccc(N3C(=S)N(c4ccc(C#N)c(C(F)(F)F)c4)C(=O)C3(C)C)cc2F)s1 [Compound 45] | – | > 10000 | 99 | activity at 3 µM [2]: 100%; activity at 10 µM [2]: 66%; inhibition at 1 µM [3]: 95%

SMILES | inhibition at 10 µM [1] [%] | IC50 [1] [nM] | IC50 [3] [nM] | also measured
CC1(C)C(=O)N(c2ccc(C#N)c(C(F)(F)F)c2)C(=O)N1c1ccc(CNC(=O)C2CC2)c(F)c1 [Compound 24] | – | > 10000 | 1090 | –
CC1(C)C(=O)N(c2cnc(C#N)c(C(F)(F)F)c2)C(=S)N1c1ccc(CNC(=O)c2ncccn2)c(Cl)c1 [Compound 30] | – | > 10000 | 73 | –
CC1(C)C(=O)N(c2cnc(C#N)c(C(F)(F)F)c2)C(=S)N1c1ccc(CNC(=O)c2ccccn2)c(F)c1 [Compound 50] | – | – | – | inhibition at 10 µM ([1]; 10 μM single concentration): 69%
CC#C[C@]1(O)CC[C@H]2[C@@H]3CCC4=CC(=O)CCC4=C3[C@@H](c3ccc(N(C)C)cc3)C[C@@]21C [RU486, reference compound] | – | – | – | GR antagonist assay, % of vehicle [1]: 13%; inhibition at 1 µM ([1]; COS-7, read-out: GR antagonism inhibition at 1 μM): 72.8%
CC1(C)C(=O)N(c2ccc(C#N)c(C(F)(F)F)c2)C(=S)N1c1ccc(CN2Cc3ncccc3C2=O)c(F)c1 [Compound 66, 4-(3-(3-fluoro-4-((5-oxo-5H-pyrrolo[3,4-b]pyridin-6(7H)-yl)methyl)phenyl)-4,4-dimethyl-5-oxo-2-thioxoimidazolidin-1-yl)-2-(trifluoromethyl)benzonitrile] | – | – | – | GR antagonist assay, % of vehicle [1]: 31%; inhibition at 1 µM [3]: 90%
CC(C)C(=O)NCc1ccc(N2C(=O)N(c3ccc(C#N)c(C(F)(F)F)c3)C(=O)C2(C)C)cc1F [Compound 20] | – | > 10000 | 1870 | –
Cc1ncsc1C(=O)NCc1ncc(N2C(=S)N(c3ccc(C#N)c(C(F)(F)F)c3)C(=O)C2(C)C)cc1F [Compound 55] | 58 | – | – | –
CC1(C)C(=O)N(c2ccc(C#N)c(C(F)(F)F)c2)C(=S)N1c1ccc(CNC(=O)c2cocn2)c(F)c1 [Compound 54] | 56 | – | – | –
CC1(C)C(=O)N(c2ccc(C#N)c(C(F)(F)F)c2)C(=S)N1c1ccc(CNC(=O)c2ccc3cn[nH]c3c2)c(F)c1 [Compound 80] | 38 | – | – | –
Cc1cccnc1C(=O)NCc1ccc(N2C(=S)N(c3ccc(C#N)c(C(F)(F)F)c3)C(=O)C2(C)C)cc1F [Compound 40] | 48 | – | – | –
CC1(C)C(=O)N(c2ccc(C#N)c(C(F)(F)F)c2)C(=S)N1c1ccc(CNC(=O)c2ncccn2)c(Cl)c1 [Compound 31] | – | > 10000 | 62 | –
CN1CC(C(=O)NCc2ccc(N3C(=S)N(c4ccc(C#N)c(C(F)(F)F)c4)C(=O)C3(C)C)cc2F)C1 [Compound 63] | 0 | – | – | –
Cc1ncsc1C(=O)NCc1ccc(N2C(=S)N(c3cnc(C#N)c(C(F)(F)F)c3)C(=O)C2(C)C)cc1F [Compound 51] | – | – | – | inhibition at 10 µM ([1]; 10 μM single concentration): 35%; inhibition at 1 µM [3]: 93%
CC1(C)C(=O)N(c2ccc(C#N)c(F)c2)C(=S)N1c1ccc(CN2Cc3ncccc3C2=O)c(F)c1 [Compound 78, 2-fluoro-4-(3-(3-fluoro-4-((5-oxo-5,7-dihydro-6H-pyrrolo[3,4-b]pyridin-6-yl)methyl)phenyl)-4,4-dimethyl-5-oxo-2-thioxoimidazolidin-1-yl)benzonitrile] | – | – | – | inhibition at 10 µM ([1]; 10 μM single concentration): 0%
CC1CC1C(=O)NCc1ccc(N2C(=S)N(c3ccc(C#N)c(C(F)(F)F)c3)C(=O)C2(C)C)cc1F (stereo not drawn) [Compound 41] | – | – | – | inhibition at 1 µM [3]: 88%
Cc1ccccc1C(=O)NCc1ccc(N2C(=S)N(c3ccc(C#N)c(C(F)(F)F)c3)C(=O)C2(C)C)cc1F [Compound 43] | 0 | – | – | inhibition at 1 µM [3]: 94%
CC1(C)C(=O)N(c2ccc(C#N)c(C(F)(F)F)c2)C(=S)N1c1ccc(CNC(=O)c2ccncn2)c(F)c1 [Compound 14] | 22 | – | – | –
CC1(C)C(=O)N(c2ccc(C#N)c(C(F)(F)F)c2)C(=O)N1c1ccc(CNC(=O)c2cncs2)cc1 [Compound 27] | – | > 10000 | 496 | –
CC1(C)C(=O)N(c2ccc(C#N)c(C(F)(F)F)c2)C(=S)N1c1ccc(CNS(=O)(=O)c2ccccn2)c(F)c1 [Compound 75] | 40 | – | – | –
